Experimental data from US9557321B2, “Method for screening drugs for suppressing inflammasome activity” (KYOTO UNIVERSITY, priority 2010, dated 2017).
Residues, ends and D or L forms follow the SMILES beside them. *: point of attachment. Cbz = O=C(OCc1ccccc1)*

What was measured:
[1] = system: macrophage MT-1 induced from iPS cells (mutant NLRP3 gene); conditions: for amount of secretion of IL-1β: 100 ng/ml IL-1Ra, 12 μM Bay11-7028, 50 μM CA074Me or 10 μM Parthenolide, two hours, then drug and LPS (1 μg/ml) four hours, FIG. 5A; for amount of IL-1β secretion: each concentration of drug, cultured two hours, then drug and LPS (1 μg/ml) another four hours, FIG. 4
[2] = system: macrophage MT-1 induced from iPS cells (mutant NLRP3 gene); experiment: amount of IL-8 secretion from LPS-stimulated macrophage MT-1 (Human Th1/Th2 11plex Kit); conditions: 100 ng/ml IL-1Ra, 12 μM Bay11-7028 or 10 μM Parthenolide; two hours, then drug and LPS (1 μg/ml) four hours; FIG. 5B
[3] = system: macrophage MT-1 induced from iPS cells (mutant NLRP3 gene); experiment: amount of IL-6 secretion from LPS-stimulated macrophage MT-1 (Human Th1/Th2 11plex Kit); conditions: 100 ng/ml IL-1Ra, 12 μM Bay11-7028 or 10 μM Parthenolide; two hours, then drug and LPS (1 μg/ml) four hours; FIG. 5C

Compound | amount of secretion of IL-1β [1] | amount of secretion of IL-8 [2] | amount of secretion of IL-6 [3] | amount of IL-1β secretion [1]
Cc1ccc(S(=O)(=O)/C=C/C#N)cc1 [Bay11-7028] | inhibited | inhibited | inhibited | –
CCCNC(=O)[C@H]1O[C@@H]1C(=O)N[C@H](C(=O)N1CCC[C@H]1C(=O)OC)[C@@H](C)CC [CA074Me] | specifically inhibited | – | – | –
C[C@@H]1C[C@@H]([C@H](O)CC2CC(=O)NC(=O)C2)C(=O)[C@@H](C)C1 [CHX, cycloheximide] | – | – | – | inhibited IL-1β secretion in a dose dependent manner
CC(C)C[C@@H](C=O)NC(=O)[C@H](CC(C)C)NC(=O)[C@H](CC(C)C)NC(=O)OCc1ccccc1 [MG132] (Cbz-Leu-Leu-Leu-aldehyde) | – | – | – | inhibited IL-1β secretion in a dose dependent manner
IL-1Ra: interleukin 1 receptor antagonist (R&D Systems) | did not change | did not change | did not change | –
